# Data taken from paper PMC11233548 (Communications Biology, 2024).
# Test system: B-RBD-D211A, D213A
# Assay: BRET-titration Gal1/B-RBD-D211A, D213A
# Format: cell-based, human
# Conditions: versus wild-type, n = 3
substance,measurement,value
"Gal1: galectin-1, H-Ras nanocluster scaffold","BRETtop, Gal1/B-RBD-D211A, D213A",significantly reduced
